Literature values, collected in US20180371542A1, “OPIOID RECEPTOR BLOCKADE IN TREATING ALCOHOL USE DISORDERS” (MUSC Foundation for Research Development, priority 2017, published 2018).

Tested on: DSM-IV alcohol dependent individuals
Settings: all subjects irrespective of genotype; initial report (Schacht et al., 2017)

O=C1CC[C@@]2(O)[C@H]3Cc4ccc(O)c5c4[C@@]2(CCN3CC2CC2)[C@H]1O5 [naltrexone]
Main effect of naltrexone over placebo overall: significant main effect of naltrexone over placebo
